Reference: the NIST ThermoML archive (doi:10.1016/j.jct.2013.10.013)
Numbers after ± are expanded uncertainties.

Experiments:
[1] = xn = mol fraction of the nth substance listed; conditions: 101 kPa, Liquid, Vibrating tube method
[2] = 283.15 K; 101 kPa; Liquid; Vibrating tube method

Compound: CC(C)NCCO [2-isopropylaminoethanol] + O
- mass density ([1]; 283.15 K, x1 = 0.00785): 998.279 ± 0.2 kg/m3
- mass density ([1]; 283.15 K, x1 = 0.00993): 997.915 ± 0.2 kg/m3
- mass density ([1]; 283.15 K, x1 = 0.0147): 997.627 ± 0.2 kg/m3
- mass density ([1]; 283.15 K, x1 = 0.02052): 997.186 ± 0.2 kg/m3
- mass density ([1]; 283.15 K, x1 = 0.02925): 997.048 ± 0.2 kg/m3
- mass density ([1]; 283.15 K, x1 = 0.04009): 997.046 ± 0.2 kg/m3
- mass density ([1]; 283.15 K, x1 = 0.04971): 996.952 ± 0.2 kg/m3
- mass density ([1]; 283.15 K, x1 = 0.0589): 996.873 ± 0.2 kg/m3
- mass density ([1]; 283.15 K, x1 = 0.06926): 996.18 ± 0.2 kg/m3
- mass density ([1]; 283.15 K, x1 = 0.08132): 994.687 ± 0.2 kg/m3
- mass density ([1]; 288.15 K, x1 = 0.00785): 997.569 ± 0.2 kg/m3
- mass density ([1]; 288.15 K, x1 = 0.00993): 997.164 ± 0.2 kg/m3
- mass density ([1]; 288.15 K, x1 = 0.0147): 996.747 ± 0.2 kg/m3
- mass density ([1]; 288.15 K, x1 = 0.02052): 996.156 ± 0.2 kg/m3
- mass density ([1]; 288.15 K, x1 = 0.02925): 995.726 ± 0.2 kg/m3
- mass density ([1]; 288.15 K, x1 = 0.04009): 995.322 ± 0.2 kg/m3
- mass density ([1]; 288.15 K, x1 = 0.04971): 994.86 ± 0.2 kg/m3
- mass density ([1]; 288.15 K, x1 = 0.0589): 994.475 ± 0.2 kg/m3
- mass density ([1]; 288.15 K, x1 = 0.06926): 993.417 ± 0.2 kg/m3
- mass density ([1]; 288.15 K, x1 = 0.08132): 991.662 ± 0.2 kg/m3
- mass density ([1]; 293.15 K, x1 = 0.00785): 996.602 ± 0.2 kg/m3
- mass density ([1]; 293.15 K, x1 = 0.00993): 996.129 ± 0.2 kg/m3
- mass density ([1]; 293.15 K, x1 = 0.0147): 995.555 ± 0.2 kg/m3
- mass density ([1]; 293.15 K, x1 = 0.02052): 994.798 ± 0.2 kg/m3
- mass density ([1]; 293.15 K, x1 = 0.02925): 994.178 ± 0.2 kg/m3
- mass density ([1]; 293.15 K, x1 = 0.04009): 993.399 ± 0.2 kg/m3
- mass density ([1]; 293.15 K, x1 = 0.04971): 992.61 ± 0.2 kg/m3
- mass density ([1]; 293.15 K, x1 = 0.0589): 991.925 ± 0.2 kg/m3
- mass density ([1]; 293.15 K, x1 = 0.06926): 990.602 ± 0.2 kg/m3
- mass density ([1]; 293.15 K, x1 = 0.08132): 988.598 ± 0.2 kg/m3
- mass density ([1]; 298.15 K, x1 = 0.00785): 995.343 ± 0.2 kg/m3
- mass density ([1]; 298.15 K, x1 = 0.00993): 994.859 ± 0.2 kg/m3
- mass density ([1]; 298.15 K, x1 = 0.0147): 994.252 ± 0.2 kg/m3
- mass density ([1]; 298.15 K, x1 = 0.02052): 993.36 ± 0.2 kg/m3
- mass density ([1]; 298.15 K, x1 = 0.02925): 992.43 ± 0.2 kg/m3
- mass density ([1]; 298.15 K, x1 = 0.04009): 991.335 ± 0.2 kg/m3
- mass density ([1]; 298.15 K, x1 = 0.04971): 990.229 ± 0.2 kg/m3
- mass density ([1]; 298.15 K, x1 = 0.0589): 989.248 ± 0.2 kg/m3
- mass density ([1]; 298.15 K, x1 = 0.06926): 987.663 ± 0.2 kg/m3
- mass density ([1]; 298.15 K, x1 = 0.08132): 985.438 ± 0.2 kg/m3
- mass density ([1]; 303.15 K, x1 = 0.00785): 993.837 ± 0.2 kg/m3
- mass density ([1]; 303.15 K, x1 = 0.00993): 993.31 ± 0.2 kg/m3
- mass density ([1]; 303.15 K, x1 = 0.0147): 992.597 ± 0.2 kg/m3
- mass density ([1]; 303.15 K, x1 = 0.02052): 991.578 ± 0.2 kg/m3
- mass density ([1]; 303.15 K, x1 = 0.02925): 990.428 ± 0.2 kg/m3
- mass density ([1]; 303.15 K, x1 = 0.04009): 989.011 ± 0.2 kg/m3
- mass density ([1]; 303.15 K, x1 = 0.04971): 987.652 ± 0.2 kg/m3
- mass density ([1]; 303.15 K, x1 = 0.0589): 986.463 ± 0.2 kg/m3
- mass density ([1]; 303.15 K, x1 = 0.06926): 984.639 ± 0.2 kg/m3
- mass density ([1]; 303.15 K, x1 = 0.08132): 982.2 ± 0.2 kg/m3

Compound: O [water]
- mass density [2]: 999.699 ± 0.2 kg/m3

Compound: O [water] + CC(C)COCCO
- mass density ([1]; 283.15 K, x2 = 0): 999.699 ± 0.2 kg/m3

Compound: O [water] + CC(C)NCCO
- mass density ([1]; 283.15 K, x2 = 0): 999.699 ± 0.2 kg/m3

Compound: O [water] + CCCCOCCO
- mass density ([1]; 283.15 K, x2 = 0): 999.699 ± 0.2 kg/m3
